Experiments:
[1] = tested on: Candida albicans; assay: Antimicrobial activity against Candida albicans ATCC 10231 incubated for 16 hrs by microplate reader method; type: functional, organism-based; details: ATCC 10231, 16 h
[2] = tested on: SW620/AD300; assay: Cytotoxicity against human SW620/AD300 cells incubated for 48 hrs by MTT assay; type: functional, cell-based; details: SW620/AD300, 48 h
[3] = tested on: NCI-H460; assay: Cytotoxicity against human NCI-H460 cells incubated for 48 hrs by MTT assay; type: functional, cell-based; details: NCI-H460, 48 h
[4] = biological target: ATP-dependent translocase ABCB1 (Homo sapiens, UniProt P08183); assay: Reversal of P-glycoprotein mediated doxorubicin resistance in human SW620/AD300 cells overexpressing P-gp assessed as gain in sensitivity against doxorubicin at 2.5 uM incubated for 52 hrs by MTT assay; type: cell-based; details: sw620/ad300, 52 h
Sequence of ATP-dependent translocase ABCB1 (P08183 whole entry): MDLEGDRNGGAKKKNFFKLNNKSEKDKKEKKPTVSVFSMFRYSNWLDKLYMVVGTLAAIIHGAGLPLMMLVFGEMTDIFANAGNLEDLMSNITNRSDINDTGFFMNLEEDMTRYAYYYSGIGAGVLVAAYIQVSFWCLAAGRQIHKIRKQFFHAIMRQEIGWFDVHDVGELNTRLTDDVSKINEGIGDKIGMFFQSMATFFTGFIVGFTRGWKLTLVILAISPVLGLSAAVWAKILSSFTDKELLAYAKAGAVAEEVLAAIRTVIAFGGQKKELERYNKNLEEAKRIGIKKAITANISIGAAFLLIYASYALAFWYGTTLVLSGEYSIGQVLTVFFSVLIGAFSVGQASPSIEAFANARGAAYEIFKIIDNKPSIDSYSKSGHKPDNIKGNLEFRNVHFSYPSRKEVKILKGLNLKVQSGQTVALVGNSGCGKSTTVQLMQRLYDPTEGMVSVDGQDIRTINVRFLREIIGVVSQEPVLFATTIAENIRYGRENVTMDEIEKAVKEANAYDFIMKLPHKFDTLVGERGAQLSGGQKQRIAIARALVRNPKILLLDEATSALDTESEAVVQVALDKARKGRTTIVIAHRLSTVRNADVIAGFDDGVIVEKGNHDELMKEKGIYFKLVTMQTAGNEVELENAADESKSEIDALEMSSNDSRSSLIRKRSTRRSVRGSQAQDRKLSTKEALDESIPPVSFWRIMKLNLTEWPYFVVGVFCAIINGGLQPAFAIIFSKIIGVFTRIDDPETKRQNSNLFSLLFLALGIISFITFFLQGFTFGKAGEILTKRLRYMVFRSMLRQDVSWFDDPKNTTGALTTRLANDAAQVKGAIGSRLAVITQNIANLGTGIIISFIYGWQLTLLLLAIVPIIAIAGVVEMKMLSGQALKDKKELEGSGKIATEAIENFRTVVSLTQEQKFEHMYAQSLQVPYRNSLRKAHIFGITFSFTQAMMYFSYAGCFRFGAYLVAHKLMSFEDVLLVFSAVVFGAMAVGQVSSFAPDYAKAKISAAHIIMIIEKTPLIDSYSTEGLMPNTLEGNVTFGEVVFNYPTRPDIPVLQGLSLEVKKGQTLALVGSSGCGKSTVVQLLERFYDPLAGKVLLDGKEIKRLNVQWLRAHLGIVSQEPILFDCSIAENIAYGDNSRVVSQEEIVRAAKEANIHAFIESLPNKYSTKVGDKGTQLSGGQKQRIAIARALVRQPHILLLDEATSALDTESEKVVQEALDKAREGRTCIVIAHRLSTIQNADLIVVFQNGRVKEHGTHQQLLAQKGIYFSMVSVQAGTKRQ

SMILES	IC50 [1]	Activity [4]	IC50 [2]	IC50 [3]
C[C@H]1Oc2c(O)c3c4c(c5n(c4c2C[C@H](CC(=O)O)O1)[C@H]([C@@H](C)O)CC5)C=CC3=O	> 30 µM	–	> 30 µM	> 30 µM
COC(=O)C[C@H]1Cc2c(c(O)c3c4c(c5n(c24)[C@H]([C@@H](C)O)CC5)C=CC3=O)[C@H](C)O1	> 30 µM	45%	> 30 µM	> 30 µM
C[C@H]1O[C@]2(C)CC(=O)O[C@]2(C)c2c1c(O)c1c3c(c4n(c23)[C@@H]([C@@H](C)O)CC4)C=CC1=O	> 30 µM	–	> 30 µM	> 30 µM
C[C@@H](O)[C@@H]1CCc2c3c4c(c(O)c(O)c(C[C@@H](O)CC(=O)O)c4n21)C(=O)C=C3	> 30 µM	–	> 30 µM	> 30 µM

Further lines, with some results ahead:

IC50 [1]	Activity [4]	SMILES	IC50 [2]	IC50 [3]
> 30 µM	45%	C[C@H]1O[C@H](CC(=O)O)Cc2c1c(O)c1c3c(c4n(c23)[C@@H]([C@@H](C)O)CC4)C=CC1=O	> 30 µM	> 30 µM
> 30 µM	45%	C[C@@H]1OC(CC(=O)O)=Cc2c1c(O)c1c3c(c4n(c23)[C@H]([C@@H](C)O)CC4)C=CC1=O	> 30 µM	> 30 µM
> 30 µM	45%	C[C@@H]1O[C@@H](CC(=O)O)C(=O)c2c1c(O)c1c3c(c4n(c23)[C@H]([C@@H](C)O)CC4)C=CC1=O	> 30 µM	> 30 µM
> 30 µM	45%	C[C@H]1OC(CC(=O)O)=Cc2c1c(O)c1c3c(c4n(c23)[C@H]([C@@H](C)O)CC4)C=CC1=O	> 30 µM	> 30 µM
